Source: patent publication US12264173B2 (GILEAD SCIENCES, INC., priority 2020, dated 2025)
Read-outs that look alike come from different tables or passages of the source.

How the values were obtained:
Assay type in all cases: cell-based
[1] = tested on: RSV strain A2; test: microbe, parasite or virus in culture; conditions: read-out: RSV HEp-2 EC50
How it was run: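 Cytopathic-effect protection assay: HEp-2 cells (50,000/mL) infected with pre-titered RSV A2 onto 3-fold serial compound dilutions, incubated 4 days at 37° C. Cell viability read by CellTiter-Glo luminescence; percent inhibition derived against 0% and 100% virus-inhibition controls.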

[2] = tested on: HRV16; test: HRV16 HeLa EC50 (cytopathic effect in H1-HeLa cells); conditions: read-out: HRV16 HeLa EC50
How it was run: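 Read-out is luminescent cell viability (CellTiter-Glo) after 96 h of infection at 33 °C, scaled between uninfected and infected-untreated wells. Before infection with titrated virus, compounds went onto H1-HeLa cells as triplicate 3-fold dilution series.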

[3] = tested on: DENV2 replicon; test: DENV-2 Huh-7 Rep EC50 (replicon luminescence)
How it was run: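 EC50 derived from luminescence dose-response, normalised to DMSO-only 0% inhibition wells, after 1.5 h with EnduRen substrate. Compounds were first exposed for 48 h at 37° C to DENV2 replicon Huh-7 cells (5,000/well).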

[4] = tested on: RSV A2; test: RSV NHBE EC50 (RSV A2 antiviral assay in NHBE cells); conditions: read-out: RSV NHBE EC50
How it was run: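 Antiviral protection in primary bronchial epithelial cells: RSV A2 (1×10^4.5 tissue culture infectious doses/mL) added right after compound, in 3-fold dilutions at 0.05% DMSO, to 7,500 attached cells per well. Cytopathic loss quantified as CellTiter-Glo luminescence after 4-day incubation at 37 °C.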

[5] = human respiratory syncytial virus, HEp-2, 96 h, Table 3, HEp-2 cells, RSV A2, 4 days
[6] = 96 h, Table 3, H1-HeLa cells, 96 h
[7] = Dengue virus, DENV2, Huh-7, 48 h, read-out: DENV-2 REP Huh7 EC50
[8] = human respiratory syncytial virus, NHBE, 96 h, Table 3, NHBE cells, RSV A2, 4 days
[9] = human respiratory syncytial virus, HEp-2, Table 5 comparative activity, 2',3'-OH vs -OC(O)iPr
[10] = HeLa, Table 5 comparative activity, 2',3'-OH vs -OC(O)iPr
[11] = human respiratory syncytial virus, NHBE, Table 5 comparative activity, 2',3'-OH vs -OC(O)iPr
[12] = Dengue virus, DENV2, Huh-7, 48 h, read-out: DENV-2 REP Huh7 EC50, Table 3, Huh-7 DENV2 replicon cells, 48 hours
[13] = Table 3, HEp-2 cells, RSV A2, 4 days
[14] = Table 3, Huh-7 DENV2 replicon cells, 48 hours, read-out: DENV-2 REP Huh7 EC50
[15] = Table 3, NHBE cells, RSV A2, 4 days

Row | SMILES | EC50 [1, 5] [nM] | EC50 [2, 6] [nM] | EC50 [3, 7] [nM] | EC50 [4, 8] [nM] | EC50 [1, 9] [nM] | EC50 [2, 10] [nM] | EC50 [4, 11] [nM] | EC50 [3, 12] [nM] | EC50 [1, 13] [nM] | EC50 ([2]; Table 3, H1-HeLa cells, 96 h) [nM] | EC50 [3, 14] [nM] | EC50 [4, 15] [nM]
1 | CC(C)OC(=O)[C@H](C)N[P@](=O)(OC[C@@]1(C#N)O[C@@H](c2ccc3c(N)ncnn23)[C@H](OC(=O)CC(C)(C)O)[C@@H]1OC(=O)CC(C)(C)O)Oc1ccccc1 [Example 152, (2R,3S,4S,5S)-5-(4-aminopyrrolo[2,1-f][1,2,4]triazin-7-yl)-2-cyano-2-((((S)-(((S)-1-isopropoxy-1-oxopropan-2-yl)amino)(phenoxy)phosphoryl)oxy)methyl) tetrahydrofuran-3,4-diyl bis(3-hydroxy-3-methylbutanoate)] | 2930 | > 50000 | > 50000 | > 5000 |  |  |  |  |  |  |  | 
2 | CC(C)C(=O)O[C@H]1[C@H](c2ccc3c(N)ncnn23)O[C@](C#N)(COP(=O)(N[C@@H](C)C(=O)OC2COC2)Oc2ccccc2)[C@H]1OC(=O)C(C)C (stereo partly drawn) [Example 184, (2R,3S,4S,5S)-5-(4-aminopyrrolo[2,1-f][1,2,4]triazin-7-yl)-2-cyano-2-((((((S)-1-(oxetan-3-yloxy)-1-oxopropan-2-yl)amino)(phenoxy)phosphoryl)oxy)methyl) tetrahydrofuran-3,4-diyl bis(2-methylpropanoate)] | 79 | 57 | 5960 | 13 | 79 | 57 | 13 |  |  |  |  | 
3 | COCCOP(=O)(N[C@@H](C)C(=O)OC(C)C)OC[C@@]1(C#N)O[C@@H](c2ccc3c(N)ncnn23)[C@H](OC(=O)C(C)C)[C@@H]1OC(=O)C(C)C (stereo partly drawn) [Example 214, (2R,3S,4S,5S)-5-(4-aminopyrrolo[2,1-f][1,2,4]triazin-7-yl)-2-cyano-2-((((((S)-1-isopropoxy-1-oxopropan-2-yl)amino)(2-methoxyethoxy)phosphoryl)oxy)methyl) tetrahydrofuran-3,4-diyl bis(2-methylpropanoate)] | > 41700 | 31300 |  | > 3890 |  |  |  | > 50000 |  |  |  | 
4 | CCC(=O)Nc1ncnn2c([C@@H]3O[C@](C#N)(COP(=O)(N[C@@H](C)C(=O)OC4CCOCC4)Oc4ccccc4)[C@@H](OC(=O)CC)[C@H]3OC(=O)CC)ccc12 (stereo partly drawn) [Example 170, (2R,3S,4S,5S)-2-Cyano-2-((((((S)-1-oxo-1-((tetrahydro-2H-pyran-4-yl)oxy)propan-2-yl)amino)(phenoxy)phosphoryl)oxy)methyl)-5-(4-propionamidopyrrolo[2,1-f][1,2,4]triazin-7-yl)tetrahydrofuran-3,4-diyl dipropionate] | 267 | 863 | 15900 | 80 |  |  |  |  |  |  |  | 
5 | CCC(=O)O[C@H]1[C@H](c2ccc3c(N)ncnn23)O[C@](C#N)(COP(=O)(N[C@@H](C)C(=O)OC2COC2)Oc2ccccc2)[C@H]1OC(=O)CC (single isomer, unassigned) [Example 175] |  |  |  |  |  |  |  |  | 87 | 85 | 9510 | 17
6 | CCC(=O)O[C@H]1[C@H](c2ccc3c(N)ncnn23)O[C@](C#N)(CO[P@@](=O)(N[C@@H](C)C(=O)OCC2CCN(CC(F)(F)F)CC2)Oc2ccccc2)[C@H]1OC(=O)CC [Example 116] |  |  |  |  |  |  |  |  | 273 | 303 | 19700 | 15
7 | CCC(=O)O[C@H]1[C@H](c2ccc3c(N)ncnn23)O[C@](C#N)(COP(=O)(N[C@@H](C)C(=O)OC2COC2)Oc2ccccc2)[C@H]1OC(=O)CC (mixture of isomers) [Example 174, (2R,3S,4S,5S)-5-(4-aminopyrrolo[2,1-f][1,2,4]triazin-7-yl)-2-cyano-2-((((((S)-1-(oxetan-3-yloxy)-1-oxopropan-2-yl)amino)(phenoxy)phosphoryl)oxy)methyl) tetrahydrofuran-3,4-diyl dipropionate] | 100 | 97 | 8310 | 20 |  |  |  |  |  |  |  | 
8 | CC(=O)O[C@H]1[C@H](c2ccc3c(N)ncnn23)O[C@](C#N)(COP(=O)(N[C@@H](C)C(=O)OC2CCOCC2)Oc2ccccc2)[C@H]1OC(C)=O (single isomer, unassigned) [Example 165] |  |  |  |  |  |  |  |  | 405 | 1910 | > 99700 | 165
9 | CCOC(=O)[C@H](C)N[P@](=O)(OC[C@@]1(C#N)O[C@@H](c2ccc3c(N)ncnn23)[C@H](OC(=O)CC)[C@@H]1OC(=O)CC)Oc1ccccc1 [Example 105, (2R,3S,4S,5S)-5-(4-Aminopyrrolo[2,1-f][1,2,4]triazin-7-yl)-2-cyano-2-((((S)-(((S)-1-ethoxy-1-oxopropan-2-yl)amino)(phenoxy)phosphoryl)oxy)methyl) tetrahydrofuran-3,4-diyl dipropionate] | 57 | 182 | 12900 | 13 |  |  |  |  |  |  |  | 
10 | COC(=O)[C@H](C)N[P@@](=O)(OC[C@@]1(C#N)O[C@@H](c2ccc3c(N)ncnn23)[C@H](OC(=O)C(C)C)[C@@H]1OC(=O)C(C)C)Oc1ccccc1 (single isomer, unassigned) [Example 139] | 39 | 97 | 5240 | 8 |  |  |  |  |  |  |  | 
11 | CC(C)C(=O)OC1C(c2ccc3c(N)ncnn23)OC(C#N)(COP(=O)(NC(C)C(=O)OCC2CCC(N)CC2)Oc2ccccc2)C1OC(=O)C(C)C (single isomer, unassigned) [Example 208] |  |  |  |  |  |  |  |  | 2120 | 15200 | > 50000 | 215
12 | CCOC(=O)[C@H](C)NP(=O)(N[C@@H](C)C(=O)OCC)OC[C@@]1(C#N)O[C@@H](c2ccc3c(N)ncnn23)[C@H](OC(=O)C(C)C)[C@@H]1OC(=O)C(C)C [Example 137, ((2R,3S,4R,5S)-5-(4-aminopyrrolo[2,1-f][1,2,4]triazin-7-yl)-2-cyano-3,4-diisobutylatetetrahydrofuran-2-yl)methyl bis-ethyl L-alaninate phosphate] | 467 | 1040 |  | 65 | 467 | 1040 | 65 | 38400 |  |  |  | 
13 | CC(C)C(=O)O[C@H]1[C@H](c2ccc3c(N)ncnn23)O[C@](C#N)(CO[P@@](=O)(N[C@@H](C)C(=O)O[C@H]2CC[C@H](C(F)(F)F)CC2)Oc2ccccc2)[C@H]1OC(=O)C(C)C [Example 79, (2R,3S,4S,5S)-5-(4-Aminopyrrolo[2,1-f][1,2,4]triazin-7-yl)-2-cyano-2-((((S)-(((S)-1-oxo-1-((trans-4-(trifluoromethyl)cyclohexyl)oxy)propan-2-yl)amino) (phenoxy)phosphoryl)oxy)methyl)tetrahydrofuran-3,4-diyl bis(2-methylpropanoate)] | 105 | 217 | 12400 | 19 |  |  |  |  |  |  |  | 
14 | CCC(=O)O[C@H]1[C@H](c2ccc3c(N)ncnn23)O[C@](C#N)(COP(=O)(N[C@@H](C)C(=O)OC(C)C)Oc2ccc(C[C@H](N)C(=O)OC)cc2)[C@H]1OC(=O)CC (stereo partly drawn) [Example 217, (2R,3S,4S,5S)-2-((((4-((S)-2-amino-3-methoxy-3-oxopropyl)phenoxy)(((S)-1-isopropoxy-1-oxopropan-2-yl)amino)phosphoryl)oxy)methyl)-5-(4-aminopyrrolo[2,1-f][1,2,4]triazin-7-yl)-2-cyanotetrahydrofuran-3,4-diyl dipropionate] | 9840 | 11900 | > 50000 | 2060 |  |  |  |  |  |  |  | 
15 | CCCC(=O)O[C@H]1[C@H](c2ccc3c(N)ncnn23)O[C@](C#N)(COP(=O)(N[C@@H](C)C(=O)OC)N[C@@H](C)C(=O)OC)[C@H]1OC(=O)CCC [Example 212, (2R,3S,4S,5S)-5-(4-Aminopyrrolo[2,1-f][1,2,4]triazin-7-yl)-2-(((bis(((S)-1-methoxy-1-oxopropan-2-yl)amino)phosphoryl)oxy)methyl)-2-cyanotetrahydrofuran-3,4-diyl dibutyrate] | 1180 | 6120 |  | 451 |  |  |  | > 71400 |  |  |  | 
16 | CCC(=O)O[C@H]1[C@H](c2ccc3c(N)ncnn23)O[C@](C#N)(CO[P@](=O)(N[C@@H](C)C(=O)OCC2CCN(CC(F)(F)F)CC2)Oc2ccccc2)[C@H]1OC(=O)CC [Example 117] |  |  |  |  |  |  |  |  | 113 | 462 | 19100 | 20
